The structures appear in SMILES notation. Values after ≈ are worked out from the molar mass of the structure shown.

The test system of test [1] is Trichophyton rubrum KD-1130. The test is described as follows: Antifungal activity evaluation test: minimum inhibitory concentration (MIC), broth dilution by reference to CLSI M38-A2. The following applies: KD1130, read-out: MIC (T. rubrum). Format: cell-based. A digest of the protocol: (§1)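 MIC read visually as lowest concentration inhibiting growth by at least 80% relative to control after 4 days at 35° C. Trichophyton strains inoculated at 2×10^3 cells/mL final in MOPS-buffered RPMI 1640 (pH 7.0); compounds as 2-fold DMSO series, CLSI M38-A2 basis.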
(Dilution methods test growth across graded concentrations, often in twofold steps.)

The test system of test [2] is Trichophyton mentagrophytes SM-110. Described as above. Format: cell-based. The following applies: SM110, read-out: MIC (T. menta.). A digest of the protocol: as §1

As for `COCC(F)(F)c1ccc(Oc2ncccc2-c2cccc3c2OCC3)cn1` [I-166, 2-{[6-(1,1-difluoro-2-methoxyethyl)pyridin-3-yl]oxy}-3-(2,3-dihydrobenzofuran-7-yl)pyridine], the MIC in test [1] and in test [2] was not above 0.1 µg/mL each time.
As for `COCC(F)(F)c1ccc(Oc2ncccc2-c2cccc3ccnn23)cn1` [I-167, 7-(2-{[6-(1,1-difluoro-2-methoxyethyl)pyridin-3-yl]oxy}pyridin-3-yl)pyrazolo[1,5-a]pyridine], the MIC in test [1] and in test [2] was 0.2 to 0.78 µg/mL (≈ 0.523 to 2.04 µM) in each case.
For `COCC(F)(F)c1ccc(Oc2ncccc2-c2cccc3nccnc23)cn1` [I-168, 5-(2-{[6-(1,1-difluoro-2-methoxyethyl)pyridin-3-yl]oxy}pyridin-3-yl)quinoxaline], the minimum inhibitory concentration (MIC) in test [1] and in test [2] was 0.2 to 0.78 µg/mL (≈ 0.507 to 1.98 µM) each time.
On to `COCC(F)(F)c1ccc(Oc2ncccc2-c2cccc3cccnc23)cn1` [I-169, 8-(2-{[6-(1,1-difluoro-2-methoxyethyl)pyridin-3-yl]oxy}pyridin-3-yl)quinoline], for which the minimum inhibitory concentration (MIC) in test [1] and in test [2] was 0.2 to 0.78 µg/mL (≈ 0.508 to 1.98 µM) in each case.
As for `COCC(F)(F)c1ccc(Oc2ncccc2-c2cc(F)cc3nccnc23)cn1` [I-170, 5-(2-{[6-(1,1-difluoro-2-methoxyethyl)pyridin-3-yl]oxy}pyridin-3-yl)-7-fluoroquinoxaline], the MIC in test [1] and in test [2] was 0.2 to 0.78 µg/mL (≈ 0.485 to 1.89 µM) throughout.
`COc1ccccc1-c1cccnc1Oc1ccc(OCc2ccccc2)nc1` [I-171, 2-{[6-(benzyloxy)pyridin-3-yl]oxy}-3-(2-methoxyphenyl)pyridine]: the minimum inhibitory concentration (MIC) in test [1] and in test [2] was not above 0.1 µg/mL each time.
Consider `COc1ccccc1-c1cccnc1Oc1ccc(OCCc2ccccc2)nc1` [I-173, 3-(2-methoxyphenyl)-2-[(6-phenethoxypyridin-3-yl)oxy]pyridine], for which the minimum inhibitory concentration (MIC) in test [1] and in test [2] was not above 0.1 µg/mL each time.
Turning to `COc1ccccc1-c1cccnc1Oc1ccc(OCc2cccnc2)nc1` [I-174, 3-(2-methoxyphenyl)pyridin-2-{[6-(pyridin-3-ylmethoxy)pyridin-3-yl]oxy}pyridine], the minimum inhibitory concentration (MIC) in test [1] and in test [2] was not above 0.1 µg/mL each time.
In the case of `COc1ccccc1-c1cccnc1Oc1ccc(COc2ccccc2)nc1` [I-175, 3-(2-methoxyphenyl)-2-{[6-(phenoxymethyl)pyridin-3-yl]oxy}pyridine], the minimum inhibitory concentration (MIC) in test [1] and in test [2] was 0.2 to 0.78 µg/mL (≈ 0.52 to 2.03 µM) in each case.
As for `COc1ncccc1-c1cccnc1Oc1ccc(OCc2ccccc2)nc1` [I-176, 2-{[6-(benzyloxy)pyridin-3-yl]oxy}-2′-methoxy-3,3′-bipyridine], the MIC in test [1] and in test [2] was not above 0.1 µg/mL throughout.
For `COc1ccncc1-c1cccnc1Oc1ccc(OCc2ccccc2)nc1` [I-177, 2-{[6-(benzyloxy)pyridin-3-yl]oxy}-4′-methoxy-3,3′-bipyridine], the MIC in test [1] and in test [2] was not above 0.1 µg/mL in each case.
For the compound `COc1ccccc1-c1cccnc1Oc1cnc(C(F)(F)F)nc1` [I-178], the minimum inhibitory concentration (MIC) in test [1] and in test [2] was not above 0.1 µg/mL in each case.
As for `COc1cc(F)ccc1-c1cccnc1Oc1cnc(C(F)(F)F)nc1` [I-179, 5-{[3-(4-fluoro-2-methoxyphenyl)pyridin-2-yl]oxy}-2-(trifluoromethyl)pyrimidine], the minimum inhibitory concentration (MIC) in test [1] and in test [2] was not above 0.1 µg/mL each time.
With `COc1ncc(Cl)cc1-c1cccnc1Oc1cnc(C(F)(F)F)nc1` [I-180, 5-chloro-2-methoxy-2′-{[2-(trifluoromethyl)pyrimidin-5-yl]oxy}-3,3′-bipyridine], the minimum inhibitory concentration (MIC) in test [1] and in test [2] was not above 0.1 µg/mL in each case.
For the compound `COc1ccccc1-c1cccnc1Oc1cnc(C(F)(F)C(F)(F)F)nc1` [I-181, 5-{[3-(2-methoxyphenyl)pyridin-2-yl]oxy}-2-(pentafluoroethyl)pyrimidine], the minimal inhibitory concentration (MIC) (in general, the least concentration at which growth counts as inhibited) is not above 0.1 µg/mL in test [1] and 0.2 to 0.78 µg/mL (≈ 0.503 to 1.96 µM) in test [2].
In the same order, the values of `CCCN(C)c1ncc(Oc2ncccc2-c2ccccc2OC)cn1` [I-182, 5-{[3-(2-methoxyphenyl)pyridin-2-yl]oxy}-N-methyl-N-propylpyrimidin-2-amine] are not above 0.1 µg/mL and not above 0.1 µg/mL.
On to `CCCN(C)c1ncc(Oc2ncccc2-c2cccnc2OC)cn1` [I-183], for which the minimum inhibitory concentration (MIC) in test [1] and in test [2] was not above 0.1 µg/mL throughout.
As to `CCN(C)c1ncc(Oc2ncccc2-c2ccc(F)cc2OC)cn1` [I-184, N-ethyl-5-{[3-(4-fluoro-2-methoxyphenyl)pyridin-2-yl]oxy}-N-methylpyrimidin-2-amine], the MIC in test [1] and in test [2] was not above 0.1 µg/mL each time.
On to `COc1cc(F)ccc1-c1cccnc1Oc1cnc(N(C)C)nc1` [I-185, 5-{[3-(4-fluoro-2-methoxyphenyl)pyridin-2-yl]oxy}-N,N-dimethylpyrimidin-2-amine], for which the minimal inhibitory concentration (MIC) in test [1] and in test [2] was not above 0.1 µg/mL each time.
For `CCCSc1ncc(Oc2ncccc2-c2ccc(F)cc2OC)cn1` [I-186, 2-(propylthio)-5-{[3-(4-fluoro-2-methoxyphenyl)pyridin-2-yl]oxy}-pyrimidine], the MIC in test [1] and in test [2] was not above 0.1 µg/mL each time.
Turning to `CCOc1ncc(Oc2ncccc2-c2ccc(F)cc2OC)cn1` [I-187, 2-ethoxy-5-{[3-(4-fluoro-2-methoxyphenyl)pyridin-2-yl]oxy}pyrimidine], the minimal inhibitory concentration (MIC) in test [1] and in test [2] was 1.56 to 6.25 µg/mL (≈ 4.57 to 18.3 µM) each time.
As to `COCCN(C)c1ncc(Oc2ncccc2-c2ccc(F)cc2OC)cn1` [I-188, 5-{[3-(4-fluoro-2-methoxyphenyl)pyridin-2-yl]oxy}-N-(2-methoxyethyl)-N-methylpyrimidin-2-amine], the minimal inhibitory concentration (MIC) in test [1] and in test [2] was not above 0.1 µg/mL each time.
On to `COc1cc(F)ccc1-c1cccnc1Oc1cnc(N(C)CC#N)nc1` [I-189], for which the minimum inhibitory concentration (MIC) in test [1] and in test [2] was 0.2 to 0.78 µg/mL (≈ 0.547 to 2.13 µM) throughout.
Regarding `COc1cc(F)ccc1-c1cccnc1Oc1cnc(I)nc1` [I-191, 5-{[3-(4-fluoro-2-methoxyphenyl)pyridin-2-yl]oxy}-2-iodopyrimidine], the minimum inhibitory concentration (MIC) in test [1] and in test [2] was 0.2 to 0.78 µg/mL (≈ 0.473 to 1.84 µM) throughout.
On to `COC(=O)CN(C)c1ncc(Oc2ncccc2-c2ccc(F)cc2OC)cn1` [I-192, methyl 2-[(5-{[3-(4-fluoro-2-methoxyphenyl)pyridin-2-yl]oxy}-pyrimidin-2-yl)(methyl)amino]acetate], for which the MIC in test [1] and in test [2] was not above 0.1 µg/mL in each case.
Regarding `COc1cc(F)ccc1-c1cccnc1Oc1cnc(N(C)Cc2cocn2)nc1` [I-193, 5-{[3-(4-fluoro-2-methoxyphenyl)pyridin-2-yl]oxy}-N-methyl-N-(oxazol-4-ylmethyl)pyrimidin-2-amine], the MIC in test [1] and in test [2] was not above 0.1 µg/mL in each case.
Take `COc1cc(F)ccc1-c1cccnc1Oc1cnc(N(C)Cc2nccs2)nc1` [I-194, 5-{[3-(4-fluoro-2-methoxyphenyl)pyridin-2-yl]oxy}-N-methyl-N-(thiazol-2-ylmethyl)pyrimidin-2-amine]: the MIC was 0.2 to 0.78 µg/mL (≈ 0.472 to 1.84 µM) in test [1] and not above 0.1 µg/mL in test [2].
`CCOC(=O)CCc1ncc(Oc2ncccc2-c2ccc(F)cc2OC)cn1` [I-195, ethyl 3-(5-{[3-(4-fluoro-2-methoxyphenyl)pyridin-2-yl]oxy}-pyrimidin-2-yl)propionate]: the MIC in test [1] and in test [2] was 0.2 to 0.78 µg/mL (≈ 0.503 to 1.96 µM) each time.
For the compound `CCOC(=O)COc1ncc(Oc2ncccc2-c2ccc(F)cc2OC)cn1` [I-196, ethyl 2-[(5-{[3-(4-fluoro-2-methoxyphenyl)pyridin-2-yl]oxy}-pyrimidin-2-yl)oxy]acetate], the minimal inhibitory concentration (MIC) in test [1] and in test [2] was 0.2 to 0.78 µg/mL (≈ 0.501 to 1.95 µM) each time.
For the compound `COc1cc(F)ccc1-c1cccnc1Oc1cnc(CCc2cnn(C)c2)nc1` [I-198, 5-{[3-(4-fluoro-2-methoxyphenyl)pyridin-2-yl]oxy}-2-[2-(1-methyl-1H-pyrazol-4-yl)ethyl]pyrimidine], the MIC in test [1] and in test [2] was 0.2 to 0.78 µg/mL (≈ 0.493 to 1.92 µM) throughout.
As to `COc1ccccc1-c1cccnc1Oc1ccc(Cl)cc1` [I-199, 2-(4-chlorophenoxy)-3-(2-methoxyphenyl)pyridine], the MIC in test [1] and in test [2] was not above 0.1 µg/mL each time.
On to `COc1cccc(-c2cccnc2Oc2ccc(Cl)cc2)c1` [I-200, 2-(4-chlorophenoxy)-3-(3-methoxyphenyl)pyridine], for which the minimal inhibitory concentration (MIC) in test [1] and in test [2] was not above 0.1 µg/mL in each case.
In the case of `COc1ccccc1-c1cccnc1Oc1ccc(C(F)(F)F)cc1` [I-201, 3-(2-methoxyphenyl)-2-[4-(trifluoromethyl)phenoxy]pyridine], the MIC in test [1] and in test [2] was not above 0.1 µg/mL throughout.
Regarding `COc1ncccc1-c1cccnc1Oc1ccc(C(F)(F)F)cc1` [I-202, 2-methoxy-2′-[4-(trifluoromethyl)phenoxy]-3,3′-bipyridine], the minimum inhibitory concentration (MIC) in test [1] and in test [2] was not above 0.1 µg/mL throughout.
Consider `COc1ccnc(OC)c1-c1cccnc1Oc1ccc(C(F)(F)F)cc1` [I-203, 2,4-dimethoxy-2′-[4-(trifluoromethyl)phenoxy]-3,3′-bipyridine], for which the minimal inhibitory concentration (MIC) in test [1] and in test [2] was not above 0.1 µg/mL in each case.
Consider `COc1cnccc1-c1cccnc1Oc1ccc(C(F)(F)F)cc1` [I-204, 3′-methoxy-2-[4-(trifluoromethyl)phenoxy]-3,4′-bipyridine], for which the MIC in test [1] and in test [2] was not above 0.1 µg/mL each time.
`Cc1cnccc1-c1cccnc1Oc1ccc(C(F)(F)F)cc1` [I-205]: the minimal inhibitory concentration (MIC) in test [1] and in test [2] was not above 0.1 µg/mL each time.
With `Cc1ccncc1-c1cccnc1Oc1ccc(C(F)(F)F)cc1` [I-206, 4′-methyl-2-[4-(trifluoromethyl)phenoxy]-3,3′-bipyridine], the MIC in test [1] and in test [2] was not above 0.1 µg/mL in each case.
For `Fc1cncc(-c2cccnc2Oc2ccc(C(F)(F)F)cc2)c1Cl` [I-207, 4′-chloro-5′-fluoro-2-[4-(trifluoromethyl)phenoxy]-3,3′-bipyridine], the MIC in test [1] and in test [2] was not above 0.1 µg/mL throughout.
For the compound `Cc1c(F)cncc1-c1cccnc1Oc1ccc(C(F)(F)F)cc1` [I-208], the minimal inhibitory concentration (MIC) in test [1] and in test [2] was not above 0.1 µg/mL throughout.

These data come from patent US10647675B2 (priority 2015, dated 2020).
